Values after ≈ are worked out from the molar mass of the structure shown.
Tests used:
Assay in all cases: Minimum Inhibitory Concentration, broth microdilution
Type in all cases: cell-based
Settings in all cases: pH 4-5, Mueller Hinton Broth, 18 to 24 hours
[1] = system: Pseudomonas aeruginosa (6234)
Protocol: (§1) MIC testing is conducted using the broth (Mueller Hinton Broth) microdilution procedures relevant to each organism group as established by the Clinical and Laboratory Standards Institute (CLSI; 3-7). MIC plates are prepared in accordance with CLSI (3-7). To prepare the test plates, automated liquid handlers are used to conduct serial dilutions and liquid transfers. Automated liquid handlers utilized in this study include the Multidrop 384 (Labsystems, Helsinki, Finland) and the Biomek 2000 (Beckman Coulter, Fullerton CA). The solution is diluted to desired pH using 1 M Citric Acid or 1 M NaOH buffer. A standardized inoculum of each test organism is prepared per CLSI methods (3, 5-7) to equal a 0.5 McFarland standard in the appropriate media followed by an additional 1:20 dilution (1:10 for anaerobes).
(§2) The plates are then inoculated with 10 μL of the diluted 0.5 McFarland suspension using the Biomek 2000 from low to high drug concentration, resulting in a final concentration of approximately 5×10^5 CFU/mL per well. An un-inoculated plate is incubated for the purpose of assessing solubility of the drug in the test media. The plates are stacked 3 to 4 high, covered with a sterile lid on the top plate, and incubated for 18 to 24 hours according to CLSI. The MIC is recorded as the lowest concentration of respective compound that inhibited visible growth of the organism.

Escherichia coli (0102) = system: Escherichia coli (0102)
Protocol: as §1, §2

[2] = system: Pseudomonas aeruginosa (0103)
Protocol: as §1, §2

[3] = system: Pseudomonas aeruginosa (6160)
Protocol: as §1, §2

Escherichia coli (6260) = system: Escherichia coli (6260)
Protocol: as §1, §2

Escherichia coli (6098) = system: Escherichia coli (6098)
Protocol: as §1, §2

Structure (SMILES): Cc1cn([C@H]2C[C@H](O)[C@@H](COP(=O)(O)OCCCCO)O2)c(=O)[nH]c1=O [R-9]
- MIC [1]: 50 mg/mL (≈ 127 mM)
- MIC (Escherichia coli (0102)): 100 mg/mL (≈ 254 mM)
- MIC [2]: 100 mg/mL (≈ 254 mM)
- MIC [3]: 100 mg/mL (≈ 254 mM)
- MIC (Escherichia coli (6260)): 100 mg/mL (≈ 254 mM)
- MIC (Escherichia coli (6098)): 100 mg/mL (≈ 254 mM)

From US20260308184A1, “SUBSTITUTED PYRIMIDINEDIONE COMPOUNDS, COMPOSITIONS, AND USES THEREOF” (LAKEWOOD AMEDEX, INC., priority 2023, published 2026)
